For this assay, the system named is HIV-1. The experiment in a line: HIV infectivity assay (Table 2, strain not given). It counts as cell-based. To be noted: Human immunodeficiency virus 1, read-out: Activity Level. As to the method: Compounds were profiled against two HIV-1 viruses, the M-tropic (CCR5 utilizing) Ba-L strain and the T-tropic (CXCR4 utilizing) IIIB strain. Both viruses were propagated in human peripheral blood lymphocytes. Compounds were tested for there ability to block infection of the HOS cell line (expressing hCXCR4/hCCR5/hCD4/pHIV-LTR-luciferase) by either HIV-1 Ba-L or HIV-1, IIIB. Compound cytotoxicity was also examined in the absence of virus addition.
HOS cells (expressing hCXCR4/hCCR5/hCD4/pHIV-LTR-luciferase) were harvested and diluted in Dulbeccos modified Eagles media supplemented with 2% FCS and non-essential amino acid to a concentration of 60,000 cells/ml. The cells were plated into 96-well plates (100 ul per well) and the plates were placed in a tissue culture incubator (37° C.; 5% CO2/95% air) for a period of 24 h.
Subsequently, 50 ul of the desired drug solution (4 times the final concentration) was added to each well and the plates were returned to the tissue culture incubator (37° C.; 5% CO2/95% air) for 1 h. Following this incubation 50 ul of diluted virus was added to each well (approximately 2 million RLU per well of virus). The plates were returned to the tissue culture incubator (37° C.; 5% CO2/95% air) and were incubated for a further 96 h.
Following this incubation the endpoint for the virally infected cultures was quantified following addition of Steady-Glo Luciferase assay system reagent (Promega, Madison, Wis.). Cell viability or non-infected cultures was measured using a CellTiter-Glo luminescent cell viability assay system (Promega, Madison, Wis.). All luminescent readouts are performed on a Topcount luminescence detector (Packard, Meridien, Conn.).
Compounds were profiled against two HIV-1 viruses, the M-tropic (CCR5 utilizing) Ba-L strain and the T-tropic (CXCR4 utilizing) IIIB strain. Ba-L was propagated in either peripheral blood lymphocytes or SupT1/CCR5+/CXCR4+ cells. IIIB was propagated in peripheral blood lymphocytes. Compounds were tested for their ability to block infection of the HOS cell line (expressing hCXCR4/hCCR5/hCD4/pHIV-LTR-luciferase) by either HIV-1 Ba-L or HIV-1, IIIB. Compound cytotoxicity was also examined in the absence of virus addition.
HOS cells (expressing hCXCR4/hCCR5/hCD4/pHIV-LTR-luciferase) were harvested and diluted in Dulbeccos modified Eagles media supplemented with 2% FCS to a concentration of 120,000 cells/ml. The cells were plated into 96-well plates (50 μl per well) and the plates were placed in a tissue culture incubator (370° C.; 5% CO2/95% air) for a period of 24 h.
Subsequently, 50 μl of the desired drug solution (2 times the final concentration) was added to each well and the plates were returned to the tissue culture incubator (370° C.; 5% CO2/95% air) for 1 h. Following this incubation, 60 μl of diluted virus (4 times the final concentration) was added to 60 μl of 2× the final desired concentration of the compound and 100 μl of this compound/virus mix was added to each well (approximately 2 million RLU per well of virus). The plates were returned to the tissue culture incubator (370° C.; 5% CO2/95% air) and were incubated for a further 96 h.

Each structure is given as a SMILES string.

We go through 22 compounds from patent US20090093454A1, “Chemical Compounds” (priority 2005, published 2009).

On to `CN(C)CCNc1cccc2nc(CN3CCC[C@H]4CCc5cccnc5[C@H]43)cn12` [Example 90, N′-{2-[(4aR,10bS)-3,4,4a,5,6,10b-hexahydro-1,10-phenanthrolin-1(2H)-ylmethyl]imidazo[1,2-a]pyridin-5-yl}-N,N-dimethyl-1,2-ethanediamine], for which the IC50 was 100 to 500 nM.
In the case of `c1cnc2c(c1)CC[C@@H]1CCCN(Cc3cn4c(N5CCC(N6CCCC6)CC5)cccc4n3)[C@H]21` [Example 72, (4aR,10bS)-1-({5-[4-(1-pyrrolidinyl)-1-piperidinyl]imidazo[1,2-a]pyridin-2-yl}methyl)-1,2,3,4,4a,5,6,10b-octahydro-1,10-phenanthroline], the IC50 is < 100 nM.
Regarding `c1cnc2c(c1)CC[C@@H]1CCCN(Cc3cn4c(N5CCSCC5)cccc4n3)[C@H]21` [Example 78, (4aR,10bS)-1-{[5-(4-thiomorpholinyl)imidazo[1,2-a]pyridin-2-yl]methyl}-1,2,3,4,4a,5,6,10b-octahydro-1,10-phenanthroline], the IC50 was in the range of 100 to 500 nM.
For the compound `C[C@@H]1CN(c2cccc3nc(CN4CCC[C@H]5CCc6cccnc6[C@H]54)cn23)C[C@H](C)N1` [Example 77, (4aR,10bS)-1-({5-[(3R,5S)-3,5-dimethyl-1-piperazinyl]imidazo[1,2-a]pyridin-2-yl}methyl)-1,2,3,4,4a,5,6,10b-octahydro-1,10-phenanthroline], the IC50 was < 100 nM.
Then `CN(C)CCCn1c(CN2CCC[C@@H]3CCc4cccnc4[C@H]32)nc2ccccc21` (relative stereo) [Example 40, (trans) 3-[2-(3,4,4a,5,6,10b-hexahydro-1,10-phenanthrolin-1(2H)-ylmethyl)-1H-benzimidazol-1-yl]-N,N-dimethyl-1-propanamine], with 100 to 500 nM; and `CN(C)[C@H]1CCN(c2cccc3nc(CN4CCC[C@H]5CCc6cccnc6[C@H]54)cn23)C1` [Example 100, (3S)-1-{2-[(4aR,10bS)-3,4,4a,5,6,10b-hexahydro-1,10-phenanthrolin-1(2H)-ylmethyl]imidazo[1,2-a]pyridin-5-yl}-N,N-dimethyl-3-pyrrolidinamine], with < 100 nM.
Then `NCCCCn1c(CN2CCC[C@H]3CCc4cccnc4[C@H]32)nc2ccccc21` (racemic) [Example 38, (cis) 4-[2-(3,4,4a,5,6,10b-hexahydro-1,10-phenanthrolin-1(2H)-ylmethyl)-1H-benzimidazol-1-yl]-1-butanamine], with 100 to 500 nM; and `CN1CCN(c2cccc3nc(CN4CCC[C@H]5CCc6cccnc6[C@H]54)c(CO)n23)CC1` [Example 54, [2-[(4aR,10bS)-3,4,4a,5,6,10b-hexahydro-1,10-phenanthrolin-1(2H)-ylmethyl]-5-(4-methyl-1-piperazinyl)imidazo[1,2-a]pyridin-3-yl]methanol], with < 100 nM.
Then `CN(C)CCN(C)c1cccc2nc(CN3CCC[C@H]4CCc5cccnc5[C@H]43)cn12` [Example 70, N-{2-[(4aR,10bS)-3,4,4a,5,6,10b-hexahydro-1,10-phenanthrolin-1(2H)-ylmethyl]imidazo[1,2-a]pyridin-5-yl}-N,N′,N′-trimethyl-1,2-ethanediamine], with < 100 nM; and `c1cnc2c(c1)CC[C@@H]1CCCN(Cc3cn4c(N5CCOCC5)cccc4n3)[C@H]21` (racemic) [Example 52, (cis) 1-{[5-(4-morpholinyl)imidazo[1,2-a]pyridin-2-yl]methyl}-1,2,3,4,4a,5,6,10b-octahydro-1,10-phenanthroline], with 500 to 10000 nM.
Consider `CN1CCN(c2cccc3nc(CN4CCC[C@@H]5CCCc6cccnc6[C@H]54)cn23)CC1` [Example 123, (4aS,11bS)-1-{[5-(4-methyl-1-piperazinyl)imidazo[1,2-a]pyridin-2-yl]methyl}-2,3,4,4a,5,6,7,11b-octahydro-1H-pyrido[3′,2′:6,7]cyclohepta[1,2-b]pyridine], for which the IC50 was < 100 nM.
As to `N[C@H]1CCN(c2cccc3nc(CN4CCC[C@H]5CCc6cccnc6[C@H]54)cn23)C1` [Example 107, (3S)-1-{2-[(4aR,10bS)-3,4,4a,5,6,10b-hexahydro-1,10-phenanthrolin-1(2H)-ylmethyl]imidazo[1,2-a]pyridin-5-yl}-3-pyrrolidinamine], the IC50 is < 100 nM.
In the case of `CN1CCCC(Cn2c(CN3CCC[C@@H]4CCc5cccnc5[C@H]43)nc3ccccc32)C1` (relative stereo) [Example 42, (trans) 1-({1-[(1-methyl-3-piperidinyl)methyl]-1H-benzimidazol-2-yl}methyl)-1,2,3,4,4a,5,6,10b-octahydro-1,10-phenanthroline] it was 100 to 500 nM.
`CN1CCN(c2cccc3nc(CN4CCC[C@H]5CCc6cccnc6[C@H]54)c(CN4CCCC4)n23)CC1` [Example 58, (4aR,10bS)-1-{[5-(4-methyl-1-piperazinyl)-3-(1-pyrrolidinylmethyl)imidazo[1,2-a]pyridin-2-yl]methyl}-1,2,3,4,4a,5,6,10b-octahydro-1,10-phenanthroline]: the IC50 was < 100 nM.
Turning to `CN(C)CCCn1cnc(CN2CCC[C@H]3CCc4cccnc4[C@H]32)c1` [Example 51a, (3-{4-[(4aR,10bS)-3,4,4a,5,6,10b-hexahydro-1,10-phenanthrolin-1(2H)-ylmethyl]-1H-imidazol-1-yl}propyl)dimethylamine], the IC50 is 500 to 10000 nM.
Turning to `c1cnc2c(c1)CC[C@@H]1CCCN(Cc3cn4c(N[C@H]5CCCNC5)cccc4n3)[C@H]21` [Example 112, 2-[(4aR,10bS)-3,4,4a,5,6,10b-hexahydro-1,10-phenanthrolin-1(2H)-ylmethyl]-N-[(3S)-3-piperidinyl]imidazo[1,2-a]pyridin-5-amine], the IC50 was < 100 nM.
With `CN1CCN(c2cccc3nc(CN4CCC[C@H]5CCc6cccnc6[C@@H]54)cn23)CC1` [Example 53, (4aR,10bR)-1-{[5-(4-methyl-1-piperazinyl)imidazo[1,2-a]pyridin-2-yl]methyl}-1,2,3,4,4a,5,6,10b-octahydro-1,10-phenanthroline], the IC50 was < 100 nM.
Regarding `c1cnc2c(c1)CC[C@H]1CCN(Cc3nc4ccccc4n3CCCN3CCCCC3)[C@H]21` (racemic) [Example 133, (trans) 1-({1-[3-(1-piperidinyl)propyl]-1H-benzimidazol-2-yl}methyl)-2,3,3a,4,5,9b-hexahydro-1H-pyrrolo[3,2-h]quinoline], the IC50 lay in the range of 100 to 500 nM.
`c1cnc2c(c1)CC[C@@H]1CCCN(Cc3nc4ccccc4n3CCCN3CCCCC3)[C@H]21` (racemic) [Example 43, (cis) 1-({1-[3-(1-piperidinyl)propyl]-1H-benzimidazol-2-yl}methyl)-1,2,3,4,4a,5,6,10b-octahydro-1,10-phenanthroline]: the IC50 was < 100 nM.
Consider `CN(C)CC1CCN(c2cccc3nc(CN4CCC[C@H]5CCc6cccnc6[C@H]54)cn23)CC1` [Example 86, [(1-{2-[(4aR,10bS)-3,4,4a,5,6,10b-hexahydro-1,10-phenanthrolin-1(2H)-ylmethyl]imidazo[1,2-a]pyridin-5-yl}-4-piperidinyl)methyl]dimethylamine], for which the IC50 was < 100 nM.
Turning to `N[C@@H]1CCN(c2cccc3nc(CN4CCC[C@H]5CCc6cccnc6[C@H]54)cn23)C1` [Example 110, (3R)-1-{2-[(4aR,10bS)-3,4,4a,5,6,10b-hexahydro-1,10-phenanthrolin-1(2H)-ylmethyl]imidazo[1,2-a]pyridin-5-yl}-3-pyrrolidinamine], the IC50 is < 100 nM.
Take `CN(C)CCCn1c(CN2CC[C@@H]3CCc4cccnc4[C@H]32)nc2ccccc21` (racemic) [Example 132, (trans) 3-[2-(2,3,3a,4,5,9b-hexahydro-1H-pyrrolo[3,2-h]quinolin-1-ylmethyl)-1H-benzimidazol-1-yl]-N,N-dimethyl-1-propanamine]: the IC50 was 100 to 500 nM.
